US12377037B2, “Cleavable comonomer strategy for accelerating removal of gel nail polish” (MASSACHUSETTS INSTITUTE OF TECHNOLOGY, priority 2022, dated 2025)

Columns and labels:
Format in all cases: physicochemical
[1] = Disappearance of visible absorbance (yellowness) of polymer compositions under UV irradiation, image analysis in ImageJ; conditions: upon polymerization
Protocol: In some embodiments, the polymer composition is prepared by polymerizing the first, second, and third monomers. In certain embodiments, the third monomer is added subsequently to a mixture of at least the first and second monomers. When added to the polymer composition, the third monomer may contribute a visible absorbance that obscures the intended color of the polymer. […] In some embodiments, UV irradiation initiates the polymerization process. The disappearance of the visible absorbance can be measured by image analysis in ImageJ. […] As shown, the visible absorbance of polymer compositions with concentrations of 1, 2, and 5 wt % 2SiPr-DOT disappears after 20 minutes of UV irradiation. Compositions with lower concentrations show a disappearance of viable absorbance between about 5 and about 10 minutes of UV irradiation.

[2] = Solubility study of DOT derivatives in nail polish (supersaturated solution, quantitative 1H NMR); conditions: for Solubility (wt % in polish): nail polish (clear topcoat), supersaturated solution filtered through 0.25 μm PTFE, quantitative 1H NMR; for Notes: solubility / appearance in nail polish solution: standard nail polish solution
Protocol: The solubility of various DOT derivatives in nail polish was observed by generating a supersaturated solution of the compounds in nail polish (clear topcoat). The supersaturated solution was filtered through a 0.25 μm PTFE syringe filter, and a known mass of an internal NMR standard (bis-1,4-trimethylsilylbenzene) was added. The amount of the compound that was dissolved in the nail polish was then determined by quantitative ^1H NMR. The solubility was taken as the amount of the weight fraction of the compound dissolved in nail polish in a supersaturated solution.

[3] = Bench stability noted for DOT derivatives

For `CC(C)Sc1ccc2c(c1)-c1ccccc1COC2=S` [2S^iPr-DOT, 2-(isopropylthio)dibenzo[c,e]oxepine-5(7H)-thione], the “Colour contributed to the polymer (visible absorbance)” value [1] was “does not contribute a permanent color”, the “Solubility (wt % in polish)” value [2] was 7.64 wt % in polish and the “Solubility in nail polish, comparison in words” value ([2]; nail polish, versus DOT or 2S^sBu-DOT) was “superior solubility in nail polish over DOT or 2S^sBu-DOT”. The “Notes: solubility / appearance in nail polish solution” value [2] was “Yellow crystalline solid; shows superior solubility in standard nail polish solution”.

For `CCC(C)Sc1ccc2c(c1)-c1ccccc1COC2=S` (centres unmarked) [2S^sBu-DOT], the “Notes: bench stability” value [3] was “not bench stable”, the “Solubility (wt % in polish)” value [2] was 2.00 wt % in polish and the “Notes: solubility / appearance in nail polish solution” value [2] was “cloudy and inhomogeneous in nail polish solution”.

In the case of `S=C1OCc2ccccc2-c2ccccc21` [DOT, dibenzo[c,e]oxepine-5(7H)-thione, reference compound], the “Solubility (wt % in polish)” value [2] is reported as 2.23 wt % in polish.
